Reference: patent US20260028354A1, “TETRAHYDRONAPHTHALENE DERIVATIVES AS ESTROGEN RECEPTOR DEGRADERS” (REGENT OF THE UNIVERSITY OF MICHIGAN, priority 2022, published 2026)
Like-named read-outs stand apart in the source and are kept apart here.

Experiments:
[1] = molecular target: ER in T47D cells (Homo sapiens (Human), UniProt P03372); assay: In-cell Western (ICW) ER degradation assay in T47D cells; assay type: cell-based; details: for DC50: ER degradation
[2] = molecular target: CRBN/DDB1 (Homo sapiens (Human), UniProt Q96SW2); assay type: binding; details: His tagged CRBN+DDB1, Cy5-labeled Thalidomide probe, one hour; read-out: CRBN HTRF IC50
Method: The binding potency was determined using HTRF assay technology (Perkin Elmer). Compounds were serially diluted in DMSO and […] volume was transferred to white 384-well plate.

[3] = molecular target: ER in MCF-7 cells (Homo sapiens (Human), UniProt P03372); assay: In-cell Western (ICW) ER degradation assay in MCF-7 cells; assay type: cell-based; details: for DC50: MCF-7, ER degradation, read-out: MCF7 DC50
[4] = maximal ER degradation, 16 hrs treatment, read-out: T47D Dmax
[5] = MCF7, MCF-7, maximal ER degradation, 16 hrs treatment, read-out: MCF7 Dmax
[6] = maximal ER degradation, 16 hrs treatment
[7] = read-out: T47D Dmax, T47D, maximal ER degradation, 16 hrs treatment
[8] = MCF7, read-out: MCF7 Dmax, MCF-7, maximal ER degradation, 16 hrs treatment

Chain of CRBN/DDB1 (Q96SW2 whole entry, species assumed): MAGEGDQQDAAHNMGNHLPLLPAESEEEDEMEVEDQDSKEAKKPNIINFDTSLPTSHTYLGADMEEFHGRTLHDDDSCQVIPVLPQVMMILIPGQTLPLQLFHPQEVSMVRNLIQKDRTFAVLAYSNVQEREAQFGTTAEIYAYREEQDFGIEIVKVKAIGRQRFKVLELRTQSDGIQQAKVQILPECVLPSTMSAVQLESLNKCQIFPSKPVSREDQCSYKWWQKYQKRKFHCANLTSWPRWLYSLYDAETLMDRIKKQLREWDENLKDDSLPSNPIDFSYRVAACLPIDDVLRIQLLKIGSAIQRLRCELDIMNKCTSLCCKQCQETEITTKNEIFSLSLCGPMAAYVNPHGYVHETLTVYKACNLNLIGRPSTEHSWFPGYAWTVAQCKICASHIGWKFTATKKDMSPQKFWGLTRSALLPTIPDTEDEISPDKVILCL
Chain of CRBN/DDB1 (Q16531 whole entry partner, species assumed): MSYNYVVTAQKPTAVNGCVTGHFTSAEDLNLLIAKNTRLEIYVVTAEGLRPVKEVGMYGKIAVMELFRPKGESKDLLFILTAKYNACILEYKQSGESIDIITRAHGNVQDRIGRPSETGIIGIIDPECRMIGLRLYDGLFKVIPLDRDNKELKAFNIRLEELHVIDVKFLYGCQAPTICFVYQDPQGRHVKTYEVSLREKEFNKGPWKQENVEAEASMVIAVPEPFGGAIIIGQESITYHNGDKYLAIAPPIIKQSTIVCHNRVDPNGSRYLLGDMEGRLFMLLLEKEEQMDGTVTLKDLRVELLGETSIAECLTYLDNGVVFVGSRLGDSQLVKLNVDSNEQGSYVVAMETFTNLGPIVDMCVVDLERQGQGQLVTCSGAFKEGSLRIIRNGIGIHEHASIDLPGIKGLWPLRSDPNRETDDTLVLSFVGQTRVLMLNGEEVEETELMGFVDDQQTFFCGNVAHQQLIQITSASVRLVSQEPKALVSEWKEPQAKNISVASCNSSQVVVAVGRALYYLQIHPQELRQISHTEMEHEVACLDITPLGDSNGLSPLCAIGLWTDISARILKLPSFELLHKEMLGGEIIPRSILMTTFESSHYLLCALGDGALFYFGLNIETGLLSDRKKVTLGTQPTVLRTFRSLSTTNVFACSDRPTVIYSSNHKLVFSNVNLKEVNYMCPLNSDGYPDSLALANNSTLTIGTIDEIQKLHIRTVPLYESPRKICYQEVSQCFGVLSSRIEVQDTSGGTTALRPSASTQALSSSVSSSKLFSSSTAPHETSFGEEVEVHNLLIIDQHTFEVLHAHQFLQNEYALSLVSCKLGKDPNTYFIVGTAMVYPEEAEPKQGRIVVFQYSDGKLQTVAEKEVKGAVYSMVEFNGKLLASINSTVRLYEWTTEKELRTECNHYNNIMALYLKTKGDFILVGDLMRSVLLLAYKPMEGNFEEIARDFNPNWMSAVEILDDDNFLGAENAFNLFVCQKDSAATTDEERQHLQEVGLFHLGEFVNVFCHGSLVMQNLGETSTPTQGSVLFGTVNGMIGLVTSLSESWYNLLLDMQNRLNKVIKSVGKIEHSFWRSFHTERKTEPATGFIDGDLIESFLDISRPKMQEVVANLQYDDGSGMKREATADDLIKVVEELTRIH
Chain of ER in T47D cells (P03372 whole entry): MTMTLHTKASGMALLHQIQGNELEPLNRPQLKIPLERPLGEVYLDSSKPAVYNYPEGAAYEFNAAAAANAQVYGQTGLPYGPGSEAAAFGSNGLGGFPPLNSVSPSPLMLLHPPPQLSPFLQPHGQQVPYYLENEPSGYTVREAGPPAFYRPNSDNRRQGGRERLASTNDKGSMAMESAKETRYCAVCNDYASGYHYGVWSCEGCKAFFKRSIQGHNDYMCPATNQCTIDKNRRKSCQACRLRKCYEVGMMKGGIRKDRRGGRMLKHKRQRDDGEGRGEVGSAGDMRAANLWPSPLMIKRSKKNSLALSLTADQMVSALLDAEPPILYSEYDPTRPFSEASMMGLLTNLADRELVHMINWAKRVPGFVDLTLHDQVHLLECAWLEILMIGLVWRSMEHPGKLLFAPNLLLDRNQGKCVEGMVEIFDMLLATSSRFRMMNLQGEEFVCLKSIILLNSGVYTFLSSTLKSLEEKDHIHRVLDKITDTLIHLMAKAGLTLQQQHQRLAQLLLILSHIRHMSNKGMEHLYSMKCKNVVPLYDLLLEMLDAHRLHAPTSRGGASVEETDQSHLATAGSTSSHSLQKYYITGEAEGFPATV
Chain of ER in MCF-7 cells (P03372 whole entry): as above

| SMILES | DC50 ([1]; 16 hrs treatment) | Dmax [1, 4] | IC50 [2] | Dmax [3, 5] | DC50 ([3]; 16 hrs treatment) | T47D Dmax [1, 6] | MCF7 Dmax ([3]; MCF-7, maximal ER degradation, 16 hrs treatment) | Dmax [1, 7] | Dmax [3, 8] |
| --- | --- | --- | --- | --- | --- | --- | --- | --- | --- |
| COc1cc(N2CCC3(CC2)CC(CN2CCN4c5ccc(C(=O)N[C@H]6CCC(=O)NC6=O)nc5OC[C@@H]4C2)C3)c(F)cc1[C@@H]1c2ccc(O)cc2CC[C@@H]1c1ccccc1 [Compound A104, (S)-N-((S)-2,6-dioxopiperidin-3-yl)-3-((7-(2-fluoro-4-((1S,2S)-6-hydroxy-2-phenyl-1,2,3,4-tetrahydronaphthalen-1-yl)-5-methoxyphenyl)-7-azaspiro[3.5]nonan-2-yl)methyl)-1,2,3,4,4a,5-hexahydropyrazino[1,2-d]pyrido[2,3-b][1,4]oxazine-8-carboxamide] | < 1 nM | > 75% | > 5000 nM | 50 to 75% | 1 to 10 nM |  |  |  |  |
| O=C1CC[C@H](N2Cc3c(ccc4c3OC[C@H]3CN(CC5CCC6(CC5)CN(c5ncc([C@H]7c8ccc(O)cc8CC[C@H]7c7ccccc7)cn5)C6)CCN43)C2=O)C(=O)N1 (single isomer, unassigned) [Compound A155] | 10 to 100 nM | < 25% | 50 to 500 nM | 25 to 50% | 1 to 10 nM |  |  |  |  |
| O=C1CC[C@H](N2Cc3c(ccc4c3OC[C@H]3CN(CC5COC6(C5)CN(c5ccc([C@@H]7c8ccc(O)cc8CC[C@@H]7c7ccccc7)cc5)C6)CCN43)C2=O)C(=O)N1 (single isomer, unassigned) [Compound A40] | 10 to 100 nM |  | < 50 nM |  | 10 to 100 nM | C (“C”: 25-50%) | C (“C”: 25-50%) |  |  |
| COc1cc(N2CCC3(CC2)CC(CN2CCN4c5ccc6c(c5OC[C@H]4C2)CN([C@H]2CCC(=O)NC2=O)C6=O)C3)ccc1[C@@H]1c2ccc(O)cc2CC[C@@H]1c1ccccc1 (single isomer, unassigned) [Compound A10] | < 1 nM | > 75% | < 50 nM | > 75% | < 1 nM |  |  |  |  |
| O=C1CC[C@@H](Nc2ccc(C3CCN(C[C@H]4COC5(CCN(c6ccc([C@@H]7c8ccc(O)cc8CC[C@@H]7c7ccccc7)cc6)CC5)C4)CC3)cc2)C(=O)N1 (single isomer, unassigned) [Compound A51] | > 100 nM | < 25% | 50 to 500 nM | < 25% | > 100 nM |  |  |  |  |
| COc1cc(N2CCC(CN3CCC4(CC3)COc3c4ccc4c3CN([C@H]3CCC(=O)NC3=O)C4=O)CC2)c(F)cc1[C@@H]1c2ccc(O)cc2CC[C@@H]1c1ccccc1 [Compound A93, (S)-3-(1′-((1-(2-fluoro-4-((1S,2S)-6-hydroxy-2-phenyl-1,2,3,4-tetrahydronaphthalen-1-yl)-5-methoxyphenyl)piperidin-4-yl)methyl)-6-oxo-6,8-dihydro-2H,7H-spiro[furo[2,3-e]isoindole-3,4′-piperidin]-7-yl)piperidine-2,6-dione] | < 1 nM |  | < 50 nM |  | < 1 nM |  |  | 50 to 75% | 50 to 75% |
| COc1cc(N2CCC3(CC2)CC(CN2CCN4c5cc6c(cc5OC[C@@H]4C2)C(=O)N([C@H]2CCC(=O)NC2=O)C6)CO3)ccc1[C@@H]1c2ccc(O)cc2CC[C@@H]1c1ccccc1 (stereo partly drawn) [Compound A57, (3S)-3-((4aS)-3-((8-(4-((1S,2S)-6-hydroxy-2-phenyl-1,2,3,4-tetrahydronaphthalen-1-yl)-3-methoxyphenyl)-1-oxa-8-aza-spiro[4.5]decan-3-yl)methyl)-8-oxo-1,2,3,4,4a,5,8,10-octa-hydro-9H-pyrazino[1′,2′:4,5] [1,4]oxazino[2,3-f]isoindol-9-yl)pipcridinc-2,6-dionc] | 1 to 10 nM | 50 to 75% | 50 to 500 nM | 25 to 50% | 10 to 100 nM |  |  |  |  |
| O=C1CC[C@H](NC(=O)c2ccc3c(n2)OC[C@H]2CN(C[C@H]4COC5(CCN(c6ccc([C@@H]7c8ccc(O)cc8CC[C@@H]7c7ccccc7)cc6)CC5)C4)CCN32)C(=O)N1 (single isomer, unassigned) [Compound A13] | 1 to 10 nM | 50 to 75% | 500 to 5000 nM | 50 to 75% | 1 to 10 nM |  |  |  |  |
| O=C1CC[C@H](Nc2ccc(C3CCN(C[C@@H]4COC5(CCN(c6ccc([C@H]7c8ccc(O)cc8CC[C@H]7c7ccccc7)cc6)CC5)C4)CC3)c(F)c2)C(=O)N1 (single isomer, unassigned) [Compound A59] | > 100 nM | < 25% | 50 to 500 nM | < 25% | < 1 nM |  |  |  |  |
| O=C1CC[C@H](NC(=O)c2ccc3c(n2)OC[C@H]2CN(C[C@H]4COC5(CCN(c6ccc([C@H]7c8ccc(O)cc8CC[C@H]7c7ccccc7)cc6)CC5)C4)CCN32)C(=O)N1 (single isomer, unassigned) [Compound A15] | 10 to 100 nM | 25 to 50% | 500 to 5000 nM | 25 to 50% | 10 to 100 nM |  |  |  |  |
| O=C1CC[C@H](N2Cc3c(ccc4c3OC[C@H]3CN(CC5CC6(CCN(c7ccc([C@H]8c9ccc(O)cc9CC[C@H]8c8ccccc8)cn7)CC6)C5)CCN43)C2=O)C(=O)N1 (single isomer, unassigned) [Compound A113] | 10 to 100 nM | 25 to 50% | 50 to 500 nM | 25 to 50% | 10 to 100 nM |  |  |  |  |
| O=C1CC[C@@H](Nc2ccc(C3CCN(CC4CC5(CCN(c6ccc([C@@H]7c8ccc(O)cc8CC[C@@H]7c7ccccc7)cc6)CC5)C4)CC3)cc2)C(=O)N1 (single isomer, unassigned) [Compound A66] | 1 to 10 nM | 50 to 75% | 50 to 500 nM | 50 to 75% | 1 to 10 nM |  |  |  |  |
| COc1cc(N2CCC(CN3CCC4(CC3)COc3c4ccc4c3CN([C@H]3CCC(=O)NC3=O)C4=O)CC2)ccc1[C@@H]1c2ccc(O)cc2CC[C@@H]1c1ccccc1 [Compound A37, (R)-3-(1′-((1-(4-((1R,2R)-6-hydroxy-2-phenyl-1,2,3,4-tetrahydronaphthalen-1-yl)-3-methoxyphenyl)piperidin-4-yl)methyl)-6-oxo-6,8-dihydro-2H,7H-spiro[furo[2,3-e]iso-indole-3,4′-piperidin]-7-yl)-piperidine-2,6-dione] | < 1 nM |  | < 50 nM |  | < 1 nM |  |  | 25 to 50% | 25 to 50% |
| COc1cc(N2CCC3(CC2)CC(CN2CCN4c5ccc(C(=O)N[C@H]6CCC(=O)NC6=O)nc5OC[C@@H]4C2)C3)ccc1[C@H]1c2ccc(O)cc2CC[C@H]1c1ccccc1 (single isomer, unassigned) [Compound A107] | < 1 nM | 50 to 75% | > 5000 nM | 50 to 75% | < 1 nM |  |  |  |  |
| COc1cc(N2CCC(CN3CCN4c5ccc6c(c5OC[C@@H]4C3)CN([C@@H]3CCC(=O)NC3=O)C6=O)CC2)ccc1[C@@H]1c2ccc(O)cc2CC[C@@H]1c1ccccc1 (stereo in doubt) [Compound A23, (R)-3-((S)-7-((1-(4-((1S,2S)-6-hydroxy-2-phenyl-1,2,3,4-tetrahydronaphthalen-1-yl)-3-methoxyphenyl)piperidin-4-yl)methyl)-1-oxo-1,3,5,5a,6,7,8,9-oCtahydro-2H-pyrazino [1′,2′:4,5][1,4]oxazino[2,3-e]isoindol-2-yl)piperidine-2,6-dione] | 10 to 100 nM | 50 to 75% | < 50 nM | 25 to 50% | 10 to 100 nM |  |  |  |  |
| COc1cc(N2CCC(CN3CC[C@]4(c5ccc(N[C@H]6CCC(=O)NC6=O)cc5)[C@H](C3)C4(F)F)CC2)ccc1[C@@H]1c2ccc(O)cc2CC[C@@H]1c1ccccc1 [Compound A90, (S)-3-((4-((1R,6R)-7,7-difluoro-3-((1-(4-((1S,2S)-6-hydroxy-2-phenyl-1,2,3,4-tetra-hydronaphthalen-1-yl)-3-meth-oxyphenyl)piperidin-4-yl)meth-yl)-3-azabicyclo[4.1.0]heptan-6-yl)phenyl)amino)piperidine-2,6-dione] | < 1 nM |  | > 5000 nM |  | < 1 nM |  |  | 25 to 50% | 25 to 50% |
| COc1cc(N2CCC(CN3CC[C@]4(c5ccc(N[C@@H]6CCC(=O)NC6=O)cc5)[C@H](C3)C4(F)F)CC2)ccc1[C@@H]1c2ccc(O)cc2CC[C@@H]1c1ccccc1 [Compound A89, (R)-3-((4-((1R,6R)-7,7-difluoro-3-((1-(4-((1S,2S)-6-hydroxy-2-phenyl-1,2,3,4-tetra-hydronaphthalen-1-yl)-3-meth-oxyphenyl)piperidin-4-yl)meth-yl)-3-azabicyclo[4.1.0]heptan-6-yl)phenyl)amino)-piperidine-2,6-dione] | < 1 nM |  | > 5000 nM |  | < 1 nM |  |  | 25 to 50% | 25 to 50% |
| O=C1CCC(NC(=O)c2ccc(N3CCN(CC4CCN(c5ccc([C@@H]6c7ccc(O)cc7CC[C@@H]6c6ccccc6)cc5)CC4)CC3)cn2)C(=O)N1 (stereo partly drawn) [Compound A58, N-(2,6-dioxopiperidin-3-yl)-5-(4-((1-(4-((1R,2S)-6-hydroxy-2-phenyl-1,2,3,4-tetrahydro-naphthalen-1-yl)phenyl)piper-idin-4-yl)methyl)piperazin-1-yl)picolinamide] | < 1 nM | 50 to 75% | > 5000 nM | > 75% | < 1 nM |  |  |  |  |
| COc1cc([C@@H]2c3ccc(O)cc3CC[C@@H]2c2ccccc2)c(F)cc1N1CCC(CN2CCN3c4ccc5c(c4OC[C@H]3C2)CN([C@H]2CCC(=O)NC2=O)C5=O)CC1 (single isomer, unassigned) [Compound A98] | 10 to 100 nM |  | 50 to 500 nM |  |  | C (“C”: 25-50%) |  |  |  |
